# From PMC9552147 (Nature Communications, 2022)
# Several values for one entry are separate records, joined by “and”; a condition that tells them apart may be missing. Identical values can stand only once. Like-named read-outs stand apart in the source and are kept apart here.
# What was measured:
# HepG2 cells [1] = experiment: cells; type: cell-based; settings: Homo sapiens
# Description: (§1) Cells were trypsinized in 0.05% trypsin-EDTA (Gibco) and re-suspended in 10 mL growth medium. Cells were filtered through a 40 µm filter and seeded in collagen-coated 96-well plates (Life technologies #A11428-03) at 3500 cells/well in a volume of 170 µL/well with plates agitated upon cell addition to ensure even distribution. […] The plates were incubated an additional 72 h after which the medium was gently aspirated and replaced with 4% paraformaldehyde (100 µL/well) prepared in Dulbecco’s PBS. After 20 min fixation, the medium was removed, and wells washed three times with 200 µL/well PBS. Wells were treated for 5 min with 0.5% acetic acid (100 μL/well), wells were washed with 200 μL/well PBS and subsequently treated with permeabilization buffer (0.1 % Triton X-100) (100 μL/well) for 30 min. Buffer was removed and replaced with 2× blocking buffer from the ab110217 MitoBiogenesis™ In-Cell ELISA Kit (Abcam). After 2 h incubation, primary antibody was added (100 μl/well) in 1× blocking buffer per manufacturer’s recommendation except for the background control wells which received 100 μl/well 1× blocking buffer only. […] Alkaline phosphatase/horse radish peroxidase-labeled secondary antibody solution prepared according to the manufacturer’s instructions in 1× blocking buffer was added at 100 μl/well to all wells. After 1 h incubation, wells were washed 4 times with wash buffer (200 μl/well) followed by addition of 100 μl/well freshly prepared per manufacturer’s recommendation alkaline peroxidase development solution. […] The reagent was removed, and 100 μl/well horse radish peroxidase development solution added. […] The development solution was completely removed, and plates blotted to dryness after which 1× Janus green stain (50 μl/well) was added. […] Data was interpreted per manufacturer’s instructions and plotted in GraphPad Prism to calculate IC20 and IC50 values for Cox-I/SDHA and cell viability.
# M. tuberculosis H37Rv [2] = experiment: microbe, parasite or virus in culture; type: cell-based, Mycobacterium tuberculosis; settings: for MIC: Mycobacterium tuberculosis, H37RV
# [3] = test system: COX1 production (mitochondrial ribosomes) in HepG2 cells; experiment: cells; settings: Homo sapiens
# Description: as §1
# HepG2 cells [4] = test system: HepG2 cells
# [5] = test system: COX1 production (mitochondrial ribosomes) in HepG2 cells; settings: for COX1 production: human; for IC50: read-out: Cox IC50
# Description: as §1
# in vitro = settings: human, HepG2 IC50 (cytotoxicity)
# HepG2 cells [6] = experiment: cells; settings: Homo sapiens
# [7] = test system: M. tuberculosis H37Rv:luc within THP1 monocytes; experiment: microbe, parasite or virus in culture; type: cell-based; settings: Mycobacterium tuberculosis
# [8] = test system: SDHA production (cytoplasmic ribosomes) in HepG2 cells
# Description: as §1
# [9] = test system: SDHA production (cytoplasmic ribosomes) in HepG2 cells; experiment: cells; settings: Homo sapiens
# Description: as §1
# [10] = test system: lysine biosynthetic pathway metabolites in M. tuberculosis; type: cell-based, Mycobacterium tuberculosis
# M. tuberculosis H37Rv [11] = test system: M. tuberculosis H37Rv
# M. tuberculosis = test system: M. tuberculosis; design: species or system C57BL/6 mice; settings: in vivo, 100 mg/kg
# M. tuberculosis H37Rv [12] = test system: M. tuberculosis H37Rv; design: species or system C57BL/6 mice; settings: in vivo, 30 mg/kg
# M. tuberculosis H37Rv [13] = type: cell-based, Mycobacterium tuberculosis; design: MIC, No Lysine / MIC, No Lysine, Ave: unit not given beside the values
# M. tuberculosis H37Rv [14] = test system: M. tuberculosis H37Rv; design: species or system BALB/c mice; settings: in vivo
compound,measurement,setting,value
Nc1cc2c(c(F)n1)C(=O)N(C1CCCCC1)C2 [Compound 2],IC50,"HepG2 cells [1]; HepG2, read-out: JG IC50, Ave",3.3 µM
same,WT MIC,M. tuberculosis H37Rv [2],0.74 µM
same,MIC,"M. tuberculosis H37Rv [2]; read-out: MIC (µM), single replicate",0.6 µM
same,MIC,"M. tuberculosis H37Rv [2]; read-out: MIC, Geo Mean",0.6 µM
same,MIC,"M. tuberculosis H37Rv [2]; read-out: MIC, Mean",0.6 µM
same,MIC,"M. tuberculosis H37Rv [2]; read-out: MIC, Median",0.6 µM
same,MIC,M. tuberculosis H37Rv [2]; read-out: WT MIC,0.89 µM
same,MIC,"M. tuberculosis H37Rv [2]; read-out: WT MIC, Ave",0.82 µM
same,IC50,"[3]; HepG2, read-out: Cox IC50",2.67 µM
same,IC50,"[3]; HepG2, read-out: Cox IC50, Ave",3.6 µM
same,IC50,HepG2 cells [4],7.94 µM
same,COX1 production,[5],blocked expression of both COX1 and SDHA
same,IC50,[5],3.54 µM and 4.59 µM and 3.47 µM
same,IC50,in vitro,11 µM
same,IC50,"HepG2 cells [6]; HepG2, read-out: IC50 (µM), Geo Mean",10.7 µM
same,IC50,"HepG2 cells [6]; HepG2, read-out: IC50 (µM), Mean",11.8 µM
same,MIC,[7],0.71 µM
same,SDHA production,[8]; human,blocked expression of both COX1 and SDHA
same,IC50,[8]; read-out: SDH-A IC50,2.89 µM and 3.53 µM and 3.87 µM
same,IC50,"[9]; HepG2, read-out: SDH-A IC50",3.04 µM
same,IC50,"[9]; HepG2, read-out: SDH-A IC50, Ave",3.3 µM
Nc1ncc2c(n1)CC(C1CCC1)C2=O (centres unmarked) [Compound 9],"Acetyl-amino-oxopimelate, Raw data",[10],6696.89 and 6125.64 and 5614.65
same,"Acetyl-aminoadipate, Raw data",[10],373220.66 and 356398.25 and 363487.19
same,"Acetyl-diaminopimelate, Raw data",[10],268291.72 and 294087.29 and 265596.05
same,"Allysine, Raw data",[10],6339.98 and 6256.07 and 3388.68
same,"Amino-oxoheptanedioate, Raw data",[10],67628.76 and 66386.61 and 73890.51
same,"Aminoadipate, Raw data",[10],230713.39 and 278620.19 and 273252.31
same,"Glutamic acid, Raw data",[10],95052793.71 and 89933952.73 and 93441271.33
same,"Lysine or Methylornithine, Raw data",[10],376867.18 and 321105.18 and 351101.87
same,"Saccharopine, Raw data",[10],4344892.84 and 4372904.79 and 3935929.36
same,"Succinyl-diaminopimelate, Raw data",[10],61950.05 and 84823.10 and 63130.16
same,"diaminopimelate, Raw data",[10],182757.00 and 205469.42 and 201059.38
"CC(=O)NC[C@H]1CN(c2ccc(N3CCOCC3)c(F)c2)C(=O)O1 [Linezolid, linezolid]",IC50,"HepG2 cells [1]; HepG2, read-out: JG IC50",> 100 µM
same,"CFU/ml, Day 0",M. tuberculosis H37Rv [11],103000 CFU/ml
same,"CFU/ml, Day 2",M. tuberculosis H37Rv [11],400000 CFU/ml and 600000 CFU/ml
same,"CFU/ml, Day 4",M. tuberculosis H37Rv [11],140000 CFU/ml and 70000 CFU/ml
same,"CFU/ml, Day 7",M. tuberculosis H37Rv [11],70000 CFU/ml and 53000 CFU/ml
same,"CFU/ml, Day 14",M. tuberculosis H37Rv [11],8600 CFU/ml and 7100 CFU/ml
same,COX1 production,[5],selective inhibition of COX1 production
same,IC50,"[9]; HepG2, read-out: SDH-A IC50",> 100 µM
COc1c(N2C[C@@H]3CCCN[C@@H]3C2)c(F)cc2c(=O)c(C(=O)O)cn(C3CC3)c12 [Moxifloxacin],logCFUs per mouse (lungs),M. tuberculosis,2.5 logCFUs per mouse (2×) and 2.3 logCFUs per mouse and 1.9 logCFUs per mouse and 2.2 logCFUs per mouse
same,"logCFUs per mouse (lungs), Mean",M. tuberculosis,2.3 logCFUs per mouse
same,logCFUs per mouse (lungs),M. tuberculosis H37Rv [12],3.2 logCFUs per mouse and 3.3 logCFUs per mouse (2×) and 2.4 logCFUs per mouse and 2.9 logCFUs per mouse and 3.5 logCFUs per mouse and 3.8 logCFUs per mouse (2×) and 2.6 logCFUs per mouse
same,"logCFUs per mouse (lungs), Mean",M. tuberculosis H37Rv [12],3 logCFUs per mouse and 3.4 logCFUs per mouse
same,"MIC, +1mM Lysine",M. tuberculosis H37Rv [13],2.04 and 3.47
same,"MIC, +1mM Lysine, Ave",M. tuberculosis H37Rv [13],2.75
same,"MIC, No Lysine",M. tuberculosis H37Rv [13],1.02 and 1.45
same,"MIC, No Lysine, Ave",M. tuberculosis H37Rv [13],1.23
"O=[N+]([O-])c1cn2c(n1)OC[C@@H](OCc1ccc(OC(F)(F)F)cc1)C2 [Pa, pretomanid]",logCFUs per mouse (lungs),M. tuberculosis H37Rv [14],4.68 logCFUs per mouse and 4.53 logCFUs per mouse and 4.19 logCFUs per mouse and 4.48 logCFUs per mouse and 4.10 logCFUs per mouse
same,"logCFUs per mouse (lungs), Mean",M. tuberculosis H37Rv [14],4.4 logCFUs per mouse
same,change in lung CFU over the treatment period,M. tuberculosis H37Rv [14]; mouse,significant decrease in CFU
"CO[C@H]1/C=C/O[C@@]2(C)Oc3c(C)c(O)c4c(O)c(c(/C=N/N5CCN(C)CC5)c(O)c4c3C2=O)NC(=O)/C(C)=C\C=C\[C@H](C)[C@H](O)[C@@H](C)[C@@H](O)[C@@H](C)[C@H](OC(C)=O)[C@@H]1C [Rifampicin, rifampicin]","CFU/ml, Day 0",M. tuberculosis H37Rv [11],103000 CFU/ml
same,"CFU/ml, Day 2",M. tuberculosis H37Rv [11],270000 CFU/ml and 190000 CFU/ml
same,"CFU/ml, Day 7",M. tuberculosis H37Rv [11],5000 CFU/ml and 5100 CFU/ml
same,"CFU/ml, Day 14",M. tuberculosis H37Rv [11],440 CFU/ml and 430 CFU/ml
O=C(N[C@H](CO)[C@H](O)c1ccc([N+](=O)[O-])cc1)C(Cl)Cl [chloramphenicol],IC50,"HepG2 cells [1]; HepG2, read-out: JG IC50",> 100 µM
same,IC50,"[3]; HepG2, read-out: Cox IC50",5.11 µM
same,IC50,"[3]; HepG2, read-out: Cox IC50, Ave",4.6 µM
same,COX1 production,[5],selective inhibition of COX1 production
same,IC50,[5],4.44 µM and 3.97 µM and 4.95 µM
same,IC50,"[9]; HepG2, read-out: SDH-A IC50",> 100 µM
NNC(=O)c1ccncc1 [isoniazid],"MIC, +1mM Lysine",M. tuberculosis H37Rv [13],2.82 and 2.63
same,"MIC, +1mM Lysine, Ave",M. tuberculosis H37Rv [13],2.72
same,"MIC, No Lysine",M. tuberculosis H37Rv [13],3.02 and 3.39
same,"MIC, No Lysine, Ave",M. tuberculosis H37Rv [13],3.20
